Source: ChEMBL document CHEMBL4390659, “Molecular hybridization approach for phenothiazine incorporated 1,2,3-triazole hybrids as promising antimicrobial agents: Design, synthesis, molecular docking and in silico ADME studies” (Eur J Med Chem, 2019)
Converted amounts (≈) assume the structure as drawn.

Tests used:
[1] = test system: Mycobacterium tuberculosis; experiment: Antibacterial activity against Mycobacterium tuberculosis H37Rv ATCC 27294 assessed as reduction in mycobacterial growth incubated for 5 days by MABA method; format: functional; conditions: H37Rv ATCC 27294, 120 h
[2] = test system: Mycobacterium tuberculosis; experiment: Potency index, ratio of pyrazinamide MIC to test compound MIC against Mycobacterium tuberculosis H37Rv ATCC 27294; format: functional
[3] = test system: Mycobacterium tuberculosis; experiment: Potency index, ratio of ciprofloxacin MIC to test compound MIC against Mycobacterium tuberculosis H37Rv ATCC 27294; format: functional
Escherichia coli = experiment: Antibacterial activity against Escherichia coli incubated for 24 hrs by agar dilution method; format: functional
Staphylococcus aureus = experiment: Antibacterial activity against Staphylococcus aureus incubated for 24 hrs by agar dilution method; format: functional
Pseudomonas aeruginosa = experiment: Antibacterial activity against Pseudomonas aeruginosa incubated for 24 hrs by agar dilution method; format: functional
[4] = test system: Mycobacterium tuberculosis; experiment: Potency index, ratio of streptomycin MIC to test compound MIC against Mycobacterium tuberculosis H37Rv ATCC 27294; format: functional
Vero = experiment: Cytotoxicity against African green monkey Vero cells assessed as reduction in cell viability incubated for 72 hrs by MTT assay; format: cell-based; conditions: Chlorocebus sabaeus
[5] = Cytotoxicity against African green monkey Vero cells assessed as cell growth inhibition at 6.25 ug/ml incubated for 72 hrs by MTT assay relative to control; format: cell-based; conditions: chlorocebus sabaeus, read-out: GI
[6] = Selectivity index, ratio of IC50 for African green monkey Vero cells to MIC for Mycobacterium tuberculosis H37Rv ATCC 27294; format: toxicity; conditions: read-out: Selectivity Index

Structure (SMILES)	MIC [1]	Ratio [2]	Ratio [3]	MIC (Escherichia coli) [µg/mL]	MIC (Staphylococcus aureus) [µg/mL]	MIC (Pseudomonas aeruginosa) [µg/mL]	Ratio [4]	IC50 (Vero) [µg/mL]	inhibition at 72 h, 6.25 ug/ml [5] [%]	selectivity ratio [6]
N#Cc1ccc(Cn2cc(CN3c4ccccc4Sc4cc(/C=N/NC(=O)c5ccc(F)cc5)ccc43)nn2)cc1	2.85 µM	2	4	12.5 (≈ 22.3 µM)	6.25 (≈ 11.2 µM)	12.5 (≈ 22.3 µM)	4	758 (≈ 1350 µM)	11.4	66.3
CN1c2ccccc2Sc2cc(COCc3cn(Cc4ccc([N+](=O)[O-])cc4)nn3)ccc21	54.4 µM			50 (≈ 109 µM)	25 (≈ 54.4 µM)	50 (≈ 109 µM)				
c1ccc(Cn2cc(CN3c4ccccc4Sc4ccccc43)nn2)cc1	6.25 µg/mL			50 (≈ 135 µM)	50 (≈ 135 µM)	100 (≈ 270 µM)				
N#Cc1ccc(Cn2cc(CN3c4ccccc4Sc4ccc(C(F)(F)F)cc43)nn2)cc1	1.6 µg/mL	2	4				4	2080 (≈ 4500 µM)	5	417
CN1c2ccccc2Sc2cc(/C=N/OCc3cn(Cc4ccc([N+](=O)[O-])cc4)nn3)ccc21	52.9 µM			50 (≈ 106 µM)	25 (≈ 52.9 µM)	100 (≈ 212 µM)				
CN1c2ccccc2Sc2cc(COCc3cn(Cc4ccccc4)nn3)ccc21	60.3 µM			50 (≈ 121 µM)	50 (≈ 121 µM)	100 (≈ 241 µM)				
N#Cc1ccc(Cn2cc(CN3c4ccc(/C=N/NC(=O)c5cnccn5)cc4Sc4ccc(C(F)(F)F)cc43)nn2)cc1	2.61 µM	2	4	50 (≈ 81.8 µM)	50 (≈ 81.8 µM)	100 (≈ 164 µM)	4	2110 (≈ 3450 µM)	11.6	183
N#Cc1ccc(Cn2cc(CN3c4ccccc4Sc4cc(/C=N/NC(=O)c5ccccc5)ccc43)nn2)cc1	2.95 µM	2	4	25 (≈ 46.2 µM)	12.5 (≈ 23.1 µM)	25 (≈ 46.2 µM)	4	434 (≈ 802 µM)	13.4	32.3
CN1c2ccccc2Sc2cc(/C=N/OCc3cn(Cc4ccccc4F)nn3)ccc21	56.1 µM			25 (≈ 56.1 µM)	12.5 (≈ 28.1 µM)	25 (≈ 56.1 µM)				
CN[C@@H]1[C@H](O[C@H]2[C@H](O[C@H]3[C@H](O)[C@@H](O)[C@H](N=C(N)N)[C@@H](O)[C@@H]3N=C(N)N)O[C@@H](C)[C@]2(O)C=O)O[C@@H](CO)[C@H](O)[C@H]1O [STREPTOMYCIN]	6.25 µg/mL									
CN1c2ccccc2Sc2cc(COCc3cn(Cc4ccccc4F)nn3)ccc21	28.9 µM			25 (≈ 57.8 µM)	25 (≈ 57.8 µM)	50 (≈ 116 µM)				
CN1c2ccccc2Sc2cc(COCc3cn(Cc4ccc(C#N)cc4)nn3)ccc21	28.4 µM			25 (≈ 56.9 µM)	12.5 (≈ 28.4 µM)	25 (≈ 56.9 µM)				
Cc1ccc(Cn2cc(CN3c4ccccc4Sc4ccccc43)nn2)cc1	6.25 µg/mL			100 (≈ 260 µM)	50 (≈ 130 µM)	100 (≈ 260 µM)				
Cc1ccc(C(=O)N/N=C/c2ccc3c(c2)Sc2ccc(C(F)(F)F)cc2N3Cc2cn(Cc3ccc(C#N)cc3)nn2)cc1	2.56 µM	2	4	50 (≈ 80.2 µM)	25 (≈ 40.1 µM)	50 (≈ 80.2 µM)	4	1570 (≈ 2510 µM)	6.28	250
CN1c2ccccc2Sc2cc(/C=N/OCc3cn(Cc4ccc(C#N)cc4)nn3)ccc21	27.6 µM			25 (≈ 55.2 µM)	12.5 (≈ 27.6 µM)	25 (≈ 55.2 µM)				
O=C(O)c1cn(C2CC2)c2cc(N3CCNCC3)c(F)cc2c1=O [CIPROFLOXACIN]					2 (≈ 6.04 µM)	4 (≈ 12.1 µM)				
NNC(=O)c1ccncc1 [ISONIAZID]	3.12 µg/mL									
CN1c2ccccc2Sc2cc(/C=N/OCc3cn(Cc4ccc(F)cc4)nn3)ccc21	56.1 µM			25 (≈ 56.1 µM)	12.5 (≈ 28.1 µM)	25 (≈ 56.1 µM)				
